Values quoted from earlier work in patent US20050025804A1, “Reduction of adverse inflammation” (priority 2003, published 2005).

Details: peroxynitrite decomposition catalyst

Compound	rate constant
CC(=O)[O-].Cc1c(-c2c3nc(c(-c4c(C)c(S(=O)(=O)[O-])c(C)c(S(=O)(=O)[O-])c4C)c4ccc([n-]4)c(-c4c(C)c(S(=O)(=O)[O-])c(C)c(S(=O)(=O)[O-])c4C)c4nc(c(-c5c(C)c(S(=O)(=O)[O-])c(C)c(S(=O)(=O)[O-])c5C)c5ccc2[n-]5)C=C4)C=C3)c(C)c(S(=O)(=O)[O-])c(C)c1S(=O)(=O)[O-].[Fe+3].[Na+].[Na+].[Na+].[Na+].[Na+].[Na+].[Na+].[Na+] [Fe(III)TMPS, acetato-5,10,15,20-tetrakis(3,5-disulfonatomesityl) porphyrin iron (III) octasodium salt]	2.06e+06 M⁻¹ s⁻¹
acetato (5,10,15,20-tetrakis(N-methyl-4-pyridyl)porphinato) iron (III) tetratosylate [Fe(III)TMPyP]	2.75e+06 M⁻¹ s⁻¹
